# Reference: US11096951B2, “Prebiotic composition containing butyryl-fructooligosaccharides” (priority 2018, dated 2021)
# Legend:
# Staphylococcus aureus = test: Microbial growth curve (OD600); assay type: cell-based; details: 1% (w/v)
# Method: (§1) All strains were obtained from the official institute of strain distribution or by the food microbiology laboratory of Seoul National University. Eight bifidobacteria strains, four Lactobacillus (lactic acid bacteria) strains, lactis KCTC 2013 (Lactococcus lactis subsp. lactis KCTC 2013), and Streptococcus thermophilus KCTC 3779 were sub-cultured in MRS supplemented with 0.05% (w/v) L-cysteine.HCl (de-Mann-Rogosa-Sharpe broth; Difco, Detroit, USA) at 37° C., twice every 18 hours prior to use. Other strains were sub-cultured in BHIB (brain-heart infusion broth; Difco) under the same culture conditions as above prior to use.
# (§2) A basal medium used for the bacterial growth test was sugar-free BHIB (MB Cell, Los Angeles, Calif., USA). […]
# (§3) In order to remove glucose or other carbon source present in a culture medium of activated bacteria, cultured bacteria were centrifuged (15,000×g, 5 min), the supernatant was discarded and the precipitated bacteria were washed with PBS (pH 7.4) twice. […] Bacterial proliferation was checked by measuring optical density (OD) of the culture solution, absorbance at 600 nm was measured with a microplate reader (BioRad, Hercules, Calif., USA) and a growth curve was made. Bacterial growth was analyzed by comparing maximum OD600 values at a substance concentration of 1% (w/v). […]
# Clostridium butyricum = assay type: cell-based; details: 1% (w/v)
# [1] = test system: all bacteria used for tests; test: Microbial growth curve (OD600), all bacteria used for tests; assay type: cell-based; details: compared to positive control (glucose)
# Method: as §1, §2, §3
# B. bifidum BGN4 = test: Analysis of bacterial culture supernatant (HPLC organic acids); assay type: cell-based, Bifidobacterium bifidum; details: substance as carbon source
# B. longum BORI = test: Analysis of bacterial culture supernatant (TLC, HPLC organic acids); assay type: cell-based, Bifidobacterium longum; details: substance as carbon source
# B. catenulatum = test: Analysis of bacterial culture supernatant (HPLC organic acids); assay type: cell-based, Bifidobacterium catenulatum; details: substance as carbon source
# B. longum RD47 = test: as above; assay type: cell-based, Bifidobacterium longum; details: substance as carbon source
# L. casei = test: as above; assay type: cell-based, Lactobacillus casei; details: substance as carbon source
# Bac. Thetaiotaomicron = test: as above; assay type: cell-based; details: substance as carbon source
# E. coli = test: as above; assay type: cell-based, Escherichia coli; details: substance as carbon source
# E. Faecalis = test: Analysis of bacterial culture supernatant (TLC, HPLC organic acids); assay type: cell-based, Enterococcus faecalis; details: substance as carbon source
# Bac. Fragilis = test: Analysis of bacterial culture supernatant (HPLC organic acids); assay type: cell-based; details: substance as carbon source
# all strains = test: Analysis of bacterial culture supernatant (HPLC organic acids), all strains; assay type: cell-based; details: medium containing the substance
# [2] = Cell viability by MTT analysis; assay type: cell-based; details: human, Caco-2 cells, percentage of control
# Method: MTT analysis was conducted to confirm cytotoxicity derived from B-FOS. 100 μl of Caco-2 cells were seeded at a density of 2,000 cells/well onto a 96-well plate and cultured at 37° C. in a 5% CO2 cell incubator for 48 hours. […] After completion of culture, 20 μl of a 5 mg/mL MTT solution was added to each well, reaction was conducted for 4 hours again and the supernatant was removed. The formed crystal was dissolved in 100 μl of dimethyl sulfoxide (DMSO) and an absorbance at 750 nm was measured using a microplate spectrophotometer. Cell viability was represented as a percentage with respect to the control group with no treatment and a mean of values by repeating the test four times was indicated (FIG. 16).
# Caco-2 cells = test: Change in growth of Caco-2 cells depending on medium composition (trypan blue cell count); details: 4 days
# Method: To avoid main use of glucose as an energy source for cell growth in a standard culture medium of Caco-2 cells containing a high concentration of glucose (4.5 g/L), cellular growth was compared in the presence of a high concentration of glucose (4.5 g/L) and pyruvate using a glucose-free DMEM (Dulbecco's modified Eagle's medium; Gibco BRL, Grand Island, N.Y., USA).
# 10% (w/v) solutions of NaB, FOS and B-FOS in PBS were prepared and filtered through a 0.2 μm membrane filter. NaB, FOS and B-FOS were each prepared at a concentration of 0.005 to 0.06% (w/v) in a DMEM medium containing high concentrations of glucose (4.5 g/L) and pyruvate (Glu+Pyr+) and a DMEM medium not containing the same (Glu−Pyr−), and were then used for the test.
# 5×10^5 cells were seeded in a dose of 1.5 mL in a 25 cm^2 flask (SPL Life Science, Pocheon, South Korea) and cultured for 3 days in 37° C., 5% CO2 cell incubator until 50% confluence was obtained. Then, the medium was replaced with a medium supplemented with 0.005 to 0.06% (w/v) of NaB, FOS and B-FOS and then cultured under the same conditions for 4 days. The culture supernatant was harvested for testing and adsorbed cells were washed with PBS twice, were treated with trypsin/EDTA, and were isolated from the flask. […] The control group was a medium supplemented with PBS and a mean of values obtained by repeating tests three times is shown.
smiles,measurement,setting,value
"CCCC(=O)[O-].[Na+] [NaB, Sodium Butyrate]",growth of bacteria,Staphylococcus aureus; vs negative control,significantly inhibited
same,maximum OD600,Staphylococcus aureus; negative control OD600=0.36,0.25
same,growth of bacteria,Clostridium butyricum; vs negative control,significantly inhibited
same,maximum OD600,Clostridium butyricum; negative control OD600=0.49,0.42
same,growth / use by bacteria used for tests,[1],could not be grown well
same,Acetic acid,B. bifidum BGN4,+ (0.05% (v/v) or less)
same,Butyric acid,B. bifidum BGN4,+++ (no more than 0.25% (v/v))
same,Lactic acid,B. bifidum BGN4,+ (0.05% (v/v) or less)
same,Acetic acid,B. longum BORI,+ (0.05% (v/v) or less)
same,Butyric acid,B. longum BORI,+++ (no more than 0.25% (v/v))
same,Lactic acid,B. longum BORI,+ (0.05% (v/v) or less)
same,Acetic acid,B. catenulatum,+ (0.05% (v/v) or less)
same,Butyric acid,B. catenulatum,+++ (no more than 0.25% (v/v))
same,Lactic acid,B. catenulatum,++ (0.05% (v/v) − 0.25% (v/v))
same,Acetic acid,B. longum RD47,+ (0.05% (v/v) or less)
same,Butyric acid,B. longum RD47,+++ (no more than 0.25% (v/v))
same,Lactic acid,B. longum RD47,+ (0.05% (v/v) or less)
same,Acetic acid,L. casei,+ (0.05% (v/v) or less)
same,Butyric acid,L. casei,+++ (no more than 0.25% (v/v))
same,Lactic acid,L. casei,+ (0.05% (v/v) or less)
same,Acetic acid,Bac. Thetaiotaomicron,+ (0.05% (v/v) or less)
same,Butyric acid,Bac. Thetaiotaomicron,+++ (no more than 0.25% (v/v))
same,Lactic acid,Bac. Thetaiotaomicron,−
same,Acetic acid,E. coli,+ (0.05% (v/v) or less)
same,Butyric acid,E. coli,+++ (no more than 0.25% (v/v))
same,Lactic acid,E. coli,−
same,Acetic acid,E. Faecalis,+ (0.05% (v/v) or less)
same,Butyric acid,E. Faecalis,+++ (no more than 0.25% (v/v))
same,Lactic acid,E. Faecalis,+ (0.05% (v/v) or less)
same,Acetic acid,Bac. Fragilis,+ (0.05% (v/v) or less)
same,Butyric acid,Bac. Fragilis,+++ (no more than 0.25% (v/v))
same,Lactic acid,Bac. Fragilis,+ (0.05% (v/v) or less)
same,butyric acid in culture solutions (HPLC),all strains,detected
same,"viability at 48 h, 0.1 % (w/v)",[2]; after 48 hours,81 ± 15%
same,"viability at 72 h, 0.1 % (w/v)",[2]; after 72 hours,45 ± 6.9%
same,decrease in the number of cells as compared to the control group,"Caco-2 cells; Glu+Pyr+ medium, 0.005% (w/v)",about 30%
same,decrease in the number of cells as compared to the control group,"Caco-2 cells; Glu+Pyr+ medium, 0.04% (w/v)",~50%
same,decrease in the number of cells as compared to the control group,"Caco-2 cells; Glu+Pyr+ medium, 0.06% (w/v)",~65%
same,number of cells vs control group,"Caco-2 cells; Glu−Pyr− medium, 0.005% (w/v)",increased
same,number of cells vs control group,"Caco-2 cells; Glu−Pyr− medium, 0.02% (w/v)",increased
same,number of cells vs control group,"Caco-2 cells; Glu−Pyr− medium, 0.04% (w/v)",no significant difference
same,decrease in the number of cells as compared to the control group,"Caco-2 cells; Glu−Pyr− medium, 0.06% (w/v)",35%
